According to patent US10543262B2, “Combination therapy utilizing P2X7 peptides” (BIOSCEPTRE (AUST) PTY LTD, priority 2011, dated 2020):

System: nfP2X7 receptors
Experiment: ELISA of specific anti-nfP2X7 antibody response in patient serum after immunisation with peptide-KLH conjugate
Assay type: in vivo, human
Protocol: Peptide immunogen was synthesised to high purity in the form GHNYTTRNILPGLNITC (SEQ ID NO:2) to which was added the cross-linker maleimidocaproyl-N-hydroxysuccinimide (MCS) at the C-terminal Cys residue. The peptide was cross-linked to a carrier protein Keyhole Limpet Hemocyanin (KLH) such that the average percentage of peptide to total peptide-protein conjugate was 40%. This peptide or the alternative peptide […] (SEQ ID NO:5) similarly conjugated to KLH constituted selective epitope targets, primary and compound respectively that enabled differentiation of the nfP2X7 receptors to be made from native receptors.
The peptide-protein conjugate was added at a concentration of 2.5 mg/mL conjugate (1 mg/mL peptide) dropwise with thorough mixing in the adjuvant in an amount equal to 0.5 mL conjugate to 0.75 mL adjuvant containing 0.5 mg of target peptide epitope.
The immunisation schedule consisted of a primary inoculation (two injections subcutaneously and two injections intramuscularly) of a total of 0.5 mg peptide followed a month later with a boost applied the same way with 0.3 mg peptide. Serum samples were collected immediately prior to and a week post injections. Inoculation is ideally administered no less than a month after the final infusion of anti-nfP2X7 antibody to ensure no sequestration of the immunogen by residual specific anti-nfP2X7 antibody infusate.
Specific anti-nfP2X7 antibody responses were measured by ELISA. In brief, the ELISA plate was coated with specific target peptide epitope, either naked or conjugated to a carrier other than the one against which the antibody response was generated, over which patient serum is added in a descending concentration. After washing, an appropriate secondary anti-human antibody (anti-IgM or anti-IgG types) is applied to detect and determine the concentration of specific human anti-nfP2X7 antibody present in the patient serum in the form of IgM or IgG.

[1] = following the primary inoculation (0.5 mg peptide)

GHNYTTRNILPGLNITC
specific anti-nfP2X7 IgM concentration in patient serum (ELISA) (following the boost (0.3 mg peptide)): returned to a baseline of zero
specific anti-nfP2X7 IgG concentration in patient serum (ELISA) (following the boost, provided no nfP2X7 receptor sink is present on extant tumor): higher concentration than the original IgM
specific anti-nfP2X7 IgG in patient serum (ELISA) [1]: no IgG is detectable
specific anti-nfP2X7 IgM in patient serum (ELISA) [1]: a small amount of IgM is detected
circulating anti-nfP2X7 antibody response in serum (ELISA) (patient with moderate tumor burden, Week 13, 9 weeks post boost): small level
circulating antibody present in serum (ELISA) (patient with moderate tumor burden, intermediate measurements Weeks 5 to 12): little circulating antibody was present
antibodies to the peptide detected in serum (ELISA) (patient with moderate tumor burden, pre-boost serum at Week 4, 4 weeks post initial immunisation): No antibodies were detected
circulating antibody levels detected in serum (ELISA) (patient with very small residual tumor burden, Week 5, 1 week post boost): much higher than in the patient who had a moderate tumor mass
specific endogenous anti-nfP2X7 antibody detected in the serum (patients without nfP2X7 receptor sink (original tumor cleared), after boost): ~5 mg/kg
